The source of these data is patent US20150072020A1, “Dexanabinol or a Derivative Thereof for Use in the Treatment of Cancer in Dose Ranges of 2-30 mg/kg” (E-THERAPEUTICS PLC, priority 2012, published 2015).

One assay deals with CDK2 (Homo sapiens, UniProt P24941). The experiment in a line: direct assay of dexanabinol against CDK2. In kind it is biochemical. Particulars: when directly assayed; heading names CDK2/A. From the text:
(§1) However, we believe that CDKs are affected indirectly, in circumstances where more of the intracellular network that might mediate such effects remains present.

A further assay deals with CDK5 (Homo sapiens, UniProt Q00535). The experiment in a line: direct assay of dexanabinol against CDK5. Particulars: when directly assayed; heading names CDK5/p25. In kind it is biochemical.
Text: as §1

Sequence of CDK5 (Q00535 whole entry, species assumed): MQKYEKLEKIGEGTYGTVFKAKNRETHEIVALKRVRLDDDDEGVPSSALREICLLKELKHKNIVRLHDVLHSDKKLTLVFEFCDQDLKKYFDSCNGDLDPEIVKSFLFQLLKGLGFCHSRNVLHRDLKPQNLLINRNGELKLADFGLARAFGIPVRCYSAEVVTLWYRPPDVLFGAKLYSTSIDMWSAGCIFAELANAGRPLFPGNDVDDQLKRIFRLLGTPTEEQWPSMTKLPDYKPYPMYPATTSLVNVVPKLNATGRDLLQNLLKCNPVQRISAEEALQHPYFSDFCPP
Sequence of CDK5 (Q15078 99-307 partner limits assumed, species assumed): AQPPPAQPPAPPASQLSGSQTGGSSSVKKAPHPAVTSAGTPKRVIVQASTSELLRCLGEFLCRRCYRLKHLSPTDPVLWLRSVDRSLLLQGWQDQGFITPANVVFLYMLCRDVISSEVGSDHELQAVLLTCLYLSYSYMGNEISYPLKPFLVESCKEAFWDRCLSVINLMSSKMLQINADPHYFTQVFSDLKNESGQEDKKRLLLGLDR

Turning to `CCCCCCC(C)(C)c1cc(O)c2c(c1)OC(C)(C)[C@H]1CC=C(CO)C[C@H]21` [Dexanabinol, 1, 1 dimethyl heptyl-(3S, 4S)-7-hydroxy-Δ^6-tetrahydrocannabinol], on CDK2, the “direct activity against CDK2” value is given as “no significant direct activity”. Besides, at CDK5, the “direct activity against CDK5” value is “no significant direct activity”.
